# Laboratory results published in ChEMBL document CHEMBL3885881, “DrugMatrix”.
# Species on record: Rattus norvegicus
# Assay: DrugMatrix - Regimen: Daily Repeat
# Type: toxicity, organism-based, Sprague-Dawley
# Set-up: regimen Daily Repeat, gender Male, age 6-8 weeks
# Settings: in vivo, po, route oral GAVAGE, vehicle 100 % SALINE; for ALBUMIN / ALKALINE PHOSPHATASE / ASPARTATE AMINOTRANSFERASE / BLOOD UREA NITROGEN / CARBON DIOXIDE / CHLORIDE / CHOLESTEROL / CREATINE PHOSPHOKINASE / CREATININE / GLUCOSE / LACTATE DEHYDROGENASE / LIPASE / PHOSPHORUS / SODIUM / TOTAL BILIRUBIN / TOTAL PROTEIN / ALANINE AMINOTRANSFERASE: tissue Plasma; for ABSOLUTE BASOPHIL / ABSOLUTE EOSINOPHIL / ABSOLUTE LYMPHOCYTE / ABSOLUTE MONOCYTE / ABSOLUTE SEGMENTED NEUTROPHIL / BASOPHIL / EOSINOPHIL / ERYTHROCYTE COUNT / HEMATOCRIT / HEMOGLOBIN / LEUKOCYTE COUNT / LYMPHOCYTE / MEAN CORPUSCULAR HEMOGLOBIN / MEAN CORPUSCULAR HEMOGLOBIN CONCENTRATION / MONOCYTE / NEUTROPHIL / NUCLEATED RED BLOOD CELLS / PLATELET COUNT: tissue Blood
# [1] = 700 mg/kg, 72 h, dose level Low, time 3 day
# [2] = 700 mg/kg, […], dose level Low, time 7 day
# [3] = 1400 mg/kg, 72 h, dose level High, time 3 day
# [4] = 1400 mg/kg, 120 h, dose level High, time 5 day
# [5] = 2100 mg/kg, 72 h, dose level High, time 3 day
# [6] = 2100 mg/kg, […], dose level High, time 7 day
smiles,measurement,setting,value
CN(C)C=O [DIMETHYLFORMAMIDE],ALBUMIN,[1],3.93 G/DL
same,ALKALINE PHOSPHATASE,[1],282 u/L
same,ASPARTATE AMINOTRANSFERASE,[1],140.33 u/L
same,BLOOD UREA NITROGEN,[1],11.33 mg/dL
same,CARBON DIOXIDE,[1],29.33 mmol/L
same,CHLORIDE,[1],98.33 MEQ/L
same,CHOLESTEROL,[1],93.83 mg/dL
same,CREATINE PHOSPHOKINASE,[1],256.33 u/L
same,CREATININE,[1],0.18 mg/dL
same,GLUCOSE,[1],142 mg/dL
same,LACTATE DEHYDROGENASE,[1],131.83 u/L
same,LIPASE,[1],10.17 u/L
same,PHOSPHORUS,[1],10.13 mg/dL
same,SODIUM,[1],143.05 MEQ/L
same,TOTAL BILIRUBIN,[1],0.2 mg/dL
same,TOTAL PROTEIN,[1],5.9 G/DL
same,ABSOLUTE BASOPHIL,[2],0 CELLS/uL
same,ABSOLUTE EOSINOPHIL,[2],0 CELLS/uL
same,ABSOLUTE LYMPHOCYTE,[2],8451.4 CELLS/uL
same,ABSOLUTE MONOCYTE,[2],140.6 CELLS/uL
same,ABSOLUTE SEGMENTED NEUTROPHIL,[2],648 CELLS/uL
same,BASOPHIL,[2],0%
same,EOSINOPHIL,[2],0%
same,ERYTHROCYTE COUNT,[2],5.61 x10E6/uL
same,HEMATOCRIT,[2],35.36%
same,HEMOGLOBIN,[2],14.32 G/DL
same,LEUKOCYTE COUNT,[2],9.24 x10E3/uL
same,LYMPHOCYTE,[2],91%
same,MEAN CORPUSCULAR HEMOGLOBIN,[2],25.62 pg
same,MEAN CORPUSCULAR HEMOGLOBIN CONCENTRATION,[2],40.5 G/DL
same,MONOCYTE,[2],1.6%
same,NEUTROPHIL,[2],7.4%
same,NUCLEATED RED BLOOD CELLS,[2],0 /100WBC
same,PLATELET COUNT,[2],1220.6 x10E3/uL
same,ALANINE AMINOTRANSFERASE,[2],100.4 u/L
same,ALBUMIN,[2],4.46 G/DL
same,ALKALINE PHOSPHATASE,[2],218 u/L
same,ASPARTATE AMINOTRANSFERASE,[2],142.4 u/L
same,BLOOD UREA NITROGEN,[2],16.4 mg/dL
same,CARBON DIOXIDE,[2],30 mmol/L
same,CHLORIDE,[2],98.6 MEQ/L
same,CHOLESTEROL,[2],102 mg/dL
same,CREATINE PHOSPHOKINASE,[2],220.4 u/L
same,CREATININE,[2],0.23 mg/dL
same,GLUCOSE,[2],122.8 mg/dL
same,LACTATE DEHYDROGENASE,[2],232.2 u/L
same,LIPASE,[2],11 u/L
same,PHOSPHORUS,[2],12.18 mg/dL
same,SODIUM,[2],145.44 MEQ/L
same,TOTAL BILIRUBIN,[2],0.2 mg/dL
same,TOTAL PROTEIN,[2],6.06 G/DL
same,ABSOLUTE BASOPHIL,[3],0 CELLS/uL
same,ABSOLUTE EOSINOPHIL,[3],0 CELLS/uL
same,ABSOLUTE LYMPHOCYTE,[3],16367 CELLS/uL
same,ABSOLUTE MONOCYTE,[3],177 CELLS/uL
same,ABSOLUTE SEGMENTED NEUTROPHIL,[3],1156 CELLS/uL
same,BASOPHIL,[3],0%
same,EOSINOPHIL,[3],0%
same,ERYTHROCYTE COUNT,[3],6.79 x10E6/uL
same,HEMATOCRIT,[3],42.9%
same,HEMOGLOBIN,[3],16.15 G/DL
same,LEUKOCYTE COUNT,[3],17.7 x10E3/uL
same,LYMPHOCYTE,[3],92.5%
same,MEAN CORPUSCULAR HEMOGLOBIN,[3],23.8 pg
same,MEAN CORPUSCULAR HEMOGLOBIN CONCENTRATION,[3],37.65 G/DL
same,MONOCYTE,[3],1%
same,NEUTROPHIL,[3],6.5%
same,NUCLEATED RED BLOOD CELLS,[3],0 /100WBC
same,PLATELET COUNT,[3],447 x10E3/uL
same,ALANINE AMINOTRANSFERASE,[3],1328 u/L
same,ALBUMIN,[3],4.1 G/DL
same,ALKALINE PHOSPHATASE,[3],424 u/L
same,ASPARTATE AMINOTRANSFERASE,[3],1614.5 u/L
same,BLOOD UREA NITROGEN,[3],20 mg/dL
same,CARBON DIOXIDE,[3],33 mmol/L
same,CHLORIDE,[3],99.5 MEQ/L
same,CHOLESTEROL,[3],70.5 mg/dL
same,CREATINE PHOSPHOKINASE,[3],326.5 u/L
same,CREATININE,[3],0.47 mg/dL
same,GLUCOSE,[3],210.5 mg/dL
same,LACTATE DEHYDROGENASE,[3],461 u/L
same,LIPASE,[3],11 u/L
same,PHOSPHORUS,[3],9 mg/dL
same,SODIUM,[3],148.05 MEQ/L
same,TOTAL BILIRUBIN,[3],0.35 mg/dL
same,TOTAL PROTEIN,[3],5.8 G/DL
same,ABSOLUTE BASOPHIL,[4],0 CELLS/uL
same,ABSOLUTE EOSINOPHIL,[4],0 CELLS/uL
same,ABSOLUTE LYMPHOCYTE,[4],7335 CELLS/uL
same,ABSOLUTE MONOCYTE,[4],49.5 CELLS/uL
same,ABSOLUTE SEGMENTED NEUTROPHIL,[4],565.5 CELLS/uL
same,BASOPHIL,[4],0%
same,EOSINOPHIL,[4],0%
same,ERYTHROCYTE COUNT,[4],7.28 x10E6/uL
same,HEMATOCRIT,[4],45.7%
same,HEMOGLOBIN,[4],16.7 G/DL
same,LEUKOCYTE COUNT,[4],7.95 x10E3/uL
same,LYMPHOCYTE,[4],93%
same,MEAN CORPUSCULAR HEMOGLOBIN,[4],22.95 pg
same,MEAN CORPUSCULAR HEMOGLOBIN CONCENTRATION,[4],36.55 G/DL
same,MONOCYTE,[4],0.5%
same,NEUTROPHIL,[4],6.5%
same,NUCLEATED RED BLOOD CELLS,[4],0 /100WBC
same,PLATELET COUNT,[4],998 x10E3/uL
same,ALANINE AMINOTRANSFERASE,[4],5117.67 u/L
same,ALBUMIN,[4],4.53 G/DL
same,ALKALINE PHOSPHATASE,[4],286.67 u/L
same,ASPARTATE AMINOTRANSFERASE,[4],8354 u/L
same,BLOOD UREA NITROGEN,[4],21 mg/dL
same,CARBON DIOXIDE,[4],35 mmol/L
same,CHLORIDE,[4],92 MEQ/L
same,CHOLESTEROL,[4],136 mg/dL
same,CREATINE PHOSPHOKINASE,[4],493.33 u/L
same,CREATININE,[4],0.36 mg/dL
same,GLUCOSE,[4],145 mg/dL
same,LACTATE DEHYDROGENASE,[4],42966.33 u/L
same,LIPASE,[4],12.33 u/L
same,PHOSPHORUS,[4],13.03 mg/dL
same,SODIUM,[4],146.2 MEQ/L
same,TOTAL BILIRUBIN,[4],0.5 mg/dL
same,TOTAL PROTEIN,[4],7.33 G/DL
same,ABSOLUTE BASOPHIL,[5],0 CELLS/uL
same,ABSOLUTE EOSINOPHIL,[5],16 CELLS/uL
same,ABSOLUTE LYMPHOCYTE,[5],6718 CELLS/uL
same,ABSOLUTE MONOCYTE,[5],23.33 CELLS/uL
same,ABSOLUTE SEGMENTED NEUTROPHIL,[5],509.33 CELLS/uL
same,BASOPHIL,[5],0%
same,EOSINOPHIL,[5],0.17%
same,ERYTHROCYTE COUNT,[5],5.8 x10E6/uL
same,HEMATOCRIT,[5],38.27%
same,HEMOGLOBIN,[5],13.57 G/DL
same,LEUKOCYTE COUNT,[5],7.27 x10E3/uL
same,LYMPHOCYTE,[5],92.5%
same,MEAN CORPUSCULAR HEMOGLOBIN,[5],23.42 pg
same,MEAN CORPUSCULAR HEMOGLOBIN CONCENTRATION,[5],35.45 G/DL
same,MONOCYTE,[5],0.33%
same,NEUTROPHIL,[5],7%
same,NUCLEATED RED BLOOD CELLS,[5],0 /100WBC
same,PLATELET COUNT,[5],1059 x10E3/uL
same,ALANINE AMINOTRANSFERASE,[5],105.67 u/L
same,ALBUMIN,[5],4.47 G/DL
same,ALKALINE PHOSPHATASE,[5],224.5 u/L
same,ASPARTATE AMINOTRANSFERASE,[5],117.33 u/L
same,BLOOD UREA NITROGEN,[5],14.5 mg/dL
same,CARBON DIOXIDE,[5],31.33 mmol/L
same,CHLORIDE,[5],100.17 MEQ/L
same,CHOLESTEROL,[5],99.33 mg/dL
same,CREATINE PHOSPHOKINASE,[5],191 u/L
same,CREATININE,[5],0.22 mg/dL
same,GLUCOSE,[5],143.67 mg/dL
same,LACTATE DEHYDROGENASE,[5],109.83 u/L
same,LIPASE,[5],10.33 u/L
same,PHOSPHORUS,[5],9.67 mg/dL
same,SODIUM,[5],146.58 MEQ/L
same,TOTAL BILIRUBIN,[5],0.17 mg/dL
same,TOTAL PROTEIN,[5],6.25 G/DL
same,ABSOLUTE BASOPHIL,[6],0 CELLS/uL
same,ABSOLUTE EOSINOPHIL,[6],0 CELLS/uL
same,ABSOLUTE LYMPHOCYTE,[6],6108.5 CELLS/uL
same,ABSOLUTE MONOCYTE,[6],208.75 CELLS/uL
same,ABSOLUTE SEGMENTED NEUTROPHIL,[6],1557.75 CELLS/uL
same,BASOPHIL,[6],0%
same,EOSINOPHIL,[6],0%
same,ERYTHROCYTE COUNT,[6],6.06 x10E6/uL
same,HEMATOCRIT,[6],37.55%
same,HEMOGLOBIN,[6],14.95 G/DL
same,LEUKOCYTE COUNT,[6],7.88 x10E3/uL
same,LYMPHOCYTE,[6],79.5%
same,MEAN CORPUSCULAR HEMOGLOBIN,[6],24.67 pg
same,MEAN CORPUSCULAR HEMOGLOBIN CONCENTRATION,[6],39.83 G/DL
same,MONOCYTE,[6],2.5%
same,NEUTROPHIL,[6],18%
same,NUCLEATED RED BLOOD CELLS,[6],0 /100WBC
same,PLATELET COUNT,[6],396 x10E3/uL
same,ALANINE AMINOTRANSFERASE,[6],452.75 u/L
same,ALBUMIN,[6],4.22 G/DL
same,ALKALINE PHOSPHATASE,[6],271.25 u/L
same,ASPARTATE AMINOTRANSFERASE,[6],1219.25 u/L
same,BLOOD UREA NITROGEN,[6],15.25 mg/dL
same,CARBON DIOXIDE,[6],29 mmol/L
same,CHLORIDE,[6],103 MEQ/L
same,CHOLESTEROL,[6],75.75 mg/dL
same,CREATINE PHOSPHOKINASE,[6],261 u/L
same,CREATININE,[6],0.25 mg/dL
same,GLUCOSE,[6],147.75 mg/dL
same,LACTATE DEHYDROGENASE,[6],101.25 u/L
same,LIPASE,[6],10.25 u/L
same,PHOSPHORUS,[6],7.55 mg/dL
same,SODIUM,[6],147.12 MEQ/L
same,TOTAL BILIRUBIN,[6],0.33 mg/dL
same,TOTAL PROTEIN,[6],5.7 G/DL
